{"source": "PubChem BioAssay (NCI)", "test_system": "MDA-MB-468 breast", "experiment": "DTP human tumour cell line panel, 48 h", "note": "Values joined by “and” are separate entries in the source; they are usually repeats but may differ in a detail not shown here. Identical values can stand only once.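 The compound was tested at five concentrations on cells cultured in 96-well plates, with a 48-hour exposure period. GI50 is the concentration that inhibits growth by half. Definition used: TGI = concentration required for complete inhibition of growth.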", "data": [{"smiles": "N#CC1=C(N)Oc2cc3c(cc2C1c1cccs1)OCO3", "note": "(configuration not stated)", "values": [{"measurement": "GI50", "value": 0.219, "unit": "µM"}, {"measurement": "TGI", "value": 3.03, "unit": "µM"}]}, {"smiles": "O=C(/C=C/c1ccco1)c1ccc(Nc2nc(Nc3ccc(F)cc3)nc(Nc3ccc(Cl)cc3)n2)cc1", "values": [{"measurement": "GI50", "value": 22.8, "unit": "µM"}, {"measurement": "TGI", "value": "> 100", "unit": "µM"}]}, {"smiles": "COc1ccc(CN2C(=O)/C(=C\\c3cc(OC)c(OC)c(OC)c3)c3cc(OC)ccc32)cc1", "values": [{"measurement": "GI50", "value": 1.94, "unit": "µM"}, {"measurement": "TGI", "value": 4.52, "unit": "µM"}]}, {"smiles": "CCCCCCCCCCCCN1C(C)=CS/C1=C\\C=C\\c1scc(C)[n+]1CCCCCCCCCCCC", "values": [{"measurement": "GI50", "value": 0.251, "unit": "µM"}, {"measurement": "TGI", "value": 1.39, "unit": "µM"}]}, {"smiles": "O=[N+]([O-])c1ccc(N2CCN(Cc3ccccc3)CC2)c2c1no[n+]2[O-]", "values": [{"measurement": "GI50", "value": 1.12, "unit": "µM"}, {"measurement": "TGI", "value": 2.68, "unit": "µM"}]}, {"smiles": "CC(C)C[C@@H](NC(=O)[C@@H](Cc1ccccc1)NC(=O)c1cnccn1)B1O[C@H]2[C@H](O)[C@@H](C(=O)NCCCC[C@@H]3NC(=O)[C@@H](Cc4ccccc4)NC(=O)[C@H](CC(=O)O)NC(=O)CNC(=O)[C@H](CCCN=C(N)N)NC3=O)O[C@@H](CN)[C@H]2O1", "values": [{"measurement": "GI50", "value": "0.00293 µM and 0.005 µM"}, {"measurement": "TGI", "value": "0.00906 µM and 0.00535 µM"}]}, {"smiles": "CN1CCN(Cc2ccc(-c3cc4ncnc(Nc5ccc(OCc6cccc(F)c6)c(Cl)c5)c4s3)o2)CC1", "values": [{"measurement": "GI50", "value": 0.292, "unit": "µM"}, {"measurement": "TGI", "value": 3.22, "unit": "µM"}]}, {"smiles": "CC(C)(C)Nc1nc2c(OCCc3ccccc3)cccn2c1-c1ccccc1Cl", "values": [{"measurement": "GI50", "value": 2.5, "unit": "µM"}, {"measurement": "TGI", "value": 9.17, "unit": "µM"}]}, {"smiles": "COc1ccc(C(=O)Cn2c(C(=O)c3ccc(OC)cc3)nc3ccccc32)cc1", "values": [{"measurement": "GI50", "value": 0.431, "unit": "µM"}, {"measurement": "TGI", "value": "> 22.8", "unit": "µM"}]}, {"smiles": "O=C1/C(=C/c2cccc([N+](=O)[O-])c2)COc2ccc(O)c(O)c21", "values": [{"measurement": "GI50", "value": 1.33, "unit": "µM"}, {"measurement": "TGI", "value": 3.12, "unit": "µM"}]}, {"smiles": "C=C1C(=O)O[C@H]2[C@H]1CC/C(COC(=O)C(=O)c1c[nH]c3ccccc13)=C\\CC[C@@]1(C)O[C@@H]21", "values": [{"measurement": "GI50", "value": 1.98, "unit": "µM"}, {"measurement": "TGI", "value": 3.84, "unit": "µM"}]}, {"smiles": "O=C(Nc1ccc(S(=O)(=O)Nc2nccs2)cc1)c1cccnc1Nc1cccc(Cl)c1", "values": [{"measurement": "GI50", "value": 13.9, "unit": "µM"}, {"measurement": "TGI", "value": 52.2, "unit": "µM"}]}, {"smiles": "CCNC(=O)C[C@@H]1N=C(c2ccc(Cl)cc2)c2cc(OC)ccc2-n2c(C)nnc21", "values": [{"measurement": "GI50", "value": 2.88, "unit": "µM"}, {"measurement": "TGI", "value": "> 100", "unit": "µM"}]}, {"smiles": "COc1ccc(C(=O)Cn2c(C(=O)c3ccc(Cl)cc3)nc3ccccc32)cc1", "values": [{"measurement": "GI50", "value": 6.13, "unit": "µM"}, {"measurement": "TGI", "value": "> 100", "unit": "µM"}]}, {"smiles": "Nc1c(C(=O)Nc2ccccc2)sc2nc3c(cc12)CCCCCC3", "values": [{"measurement": "GI50", "value": 0.312, "unit": "µM"}, {"measurement": "TGI", "value": 3.73, "unit": "µM"}]}, {"smiles": "O=C(Nc1ccc(-c2nc3cc4ccccc4cc3[nH]2)cc1)c1cccc(Br)c1", "values": [{"measurement": "GI50", "value": 2.41, "unit": "µM"}, {"measurement": "TGI", "value": 6.54, "unit": "µM"}]}, {"smiles": "COc1cccc(-c2nn(-c3ccccc3)cc2-c2ccnc(NCCNS(=O)(=O)c3ccc(Cl)cc3)c2)c1", "values": [{"measurement": "GI50", "value": 3.9, "unit": "µM"}, {"measurement": "TGI", "value": 64.6, "unit": "µM"}]}, {"smiles": "Cc1ccc(Nc2nc(NCCO)c3ccccc3n2)cc1C", "values": [{"measurement": "GI50", "value": 0.402, "unit": "µM"}, {"measurement": "TGI", "value": 3.13, "unit": "µM"}]}, {"smiles": "CCc1ccc(-c2nnc(COc3ccc(-c4nc5ccc(C)cc5[nH]4)cc3OC)o2)cc1", "values": [{"measurement": "GI50", "value": 3.26, "unit": "µM"}, {"measurement": "TGI", "value": 16.3, "unit": "µM"}]}, {"smiles": "CNc1ccccc1C(=O)N/N=C/C=C/c1ccccc1", "values": [{"measurement": "GI50", "value": 0.503, "unit": "µM"}, {"measurement": "TGI", "value": 15.1, "unit": "µM"}]}, {"smiles": "OC(c1cc2cc(Br)ccc2c2cc(Br)ccc12)C1CCCCN1", "note": "(configuration not stated)", "values": [{"measurement": "GI50", "value": 1.63, "unit": "µM"}, {"measurement": "TGI", "value": 3.08, "unit": "µM"}]}, {"smiles": "Cc1ccc(S(=O)ON2CCC(C(=O)O)(c3ccccc3)CC2)cc1", "note": "(configuration not stated)", "values": [{"measurement": "GI50", "value": "> 100", "unit": "µM"}, {"measurement": "TGI", "value": "> 100", "unit": "µM"}]}, {"smiles": "CCn1c(=O)c(-c2ccn[nH]2)cc2c(C)nc(N)nc21", "values": [{"measurement": "GI50", "value": 0.861, "unit": "µM"}, {"measurement": "TGI", "value": 6.25, "unit": "µM"}]}, {"smiles": "CS(=O)(=O)c1ccc(Oc2cc(F)cc(C#N)c2)c2c1[C@H](O)[C@H](F)[C@@H]2F", "values": [{"measurement": "GI50", "value": "> 100", "unit": "µM"}, {"measurement": "TGI", "value": "> 100", "unit": "µM"}]}, {"smiles": "COC(=O)/C=C/c1cc(O)c2c(c1)C(C(=O)OC)C(c1ccc(O)c(O)c1)O2", "note": "(configuration not stated)", "values": [{"measurement": "GI50", "value": "0.521 µM and 0.646 µM"}, {"measurement": "TGI", "value": "9.94 µM and 11.3 µM"}]}, {"smiles": "CC(C)C[C@H](NC(=O)[C@H](Cc1ccccc1)n1ccc(N2CCCCC2)cc1=O)B(O)O", "values": [{"measurement": "GI50", "value": 0.264, "unit": "µM"}, {"measurement": "TGI", "value": 0.745, "unit": "µM"}]}, {"smiles": "CCN(CC)c1ccc(/C=N/NC(=O)c2ccc(S(N)(=O)=O)cc2)cc1", "values": [{"measurement": "GI50", "value": 0.376, "unit": "µM"}, {"measurement": "TGI", "value": 3.66, "unit": "µM"}]}, {"smiles": "O=[N+]([O-])c1cnc(Sc2ccncn2)c([N+](=O)[O-])c1", "values": [{"measurement": "GI50", "value": 1.72, "unit": "µM"}, {"measurement": "TGI", "value": 3.55, "unit": "µM"}]}, {"smiles": "Cn1c(C(N)=O)cc2c1-c1nc(Nc3ccccc3)ncc1CCC2", "values": [{"measurement": "GI50", "value": 3.52, "unit": "µM"}, {"measurement": "TGI", "value": 15, "unit": "µM"}]}, {"smiles": "Oc1c(CN2CCC(N3CCOCC3)CC2)cc(Cc2cc(CN3CCC(N4CCOCC4)CC3)c(O)c3ncccc23)c2cccnc12", "values": [{"measurement": "GI50", "value": 1.7, "unit": "µM"}, {"measurement": "TGI", "value": 6.6, "unit": "µM"}]}, {"smiles": "Cn1ccnc1C(=O)/C=C/c1ccc(CC(=O)Nc2ccc(Cl)cc2)cc1", "values": [{"measurement": "GI50", "value": 1.03, "unit": "µM"}, {"measurement": "TGI", "value": 11.3, "unit": "µM"}]}, {"smiles": "CCN1C(=O)C/C(=C\\C(C)=O)Nc2ccccc21", "values": [{"measurement": "GI50", "value": "> 100", "unit": "µM"}, {"measurement": "TGI", "value": "> 100", "unit": "µM"}]}, {"smiles": "O=C(Nc1ccc(Cl)c([N+](=O)[O-])c1)Nc1nc2ccccc2s1", "values": [{"measurement": "GI50", "value": 3.53, "unit": "µM"}, {"measurement": "TGI", "value": 9.76, "unit": "µM"}]}, {"smiles": "CC(=O)Oc1ccccc1C(=O)Nc1ccc(C(=O)/C=C/c2ccncc2)cc1", "values": [{"measurement": "GI50", "value": 22.3, "unit": "µM"}, {"measurement": "TGI", "value": 98, "unit": "µM"}]}, {"smiles": "COc1cc(/C=C(/C)[N+](=O)[O-])ccc1O", "values": [{"measurement": "GI50", "value": "1.58 µM and 1.78 µM"}, {"measurement": "TGI", "value": "3.2 µM and 3.62 µM"}]}, {"smiles": "CC/C=C\\C[C@H](O)C/C=C1/C(=O)C=C[C@@H]1C/C=C\\CCCC(=O)NC(C)C", "values": [{"measurement": "GI50", "value": 1.67, "unit": "µM"}, {"measurement": "TGI", "value": 3.89, "unit": "µM"}]}]}
